Experimental data as given in US8299111B2, “Compounds which modulate the CB2 receptor” (Boehringer Ingelheim International GmbH, priority 2006, dated 2012).

target: T1, human CB2R (Homo sapiens, UniProt P34972); assay: CB2R mediated modulation of cAMP synthesis; format: cell-based; conditions: found through the use of the above described assays (binding and cAMP); CHO cells expressing human CB2R, forskolin-stimulated cAMP
T1 construct: host or cells: CHO cells
Outline: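 CHO cells expressing human CB2R were treated for 30 min at 37 °C with compound in buffer containing 1 mM IBMX, 0.25% BSA and 10 uM forskolin. cAMP was measured after lysis. EC50 is the concentration giving 50% inhibition of forskolin-stimulated cAMP, scaled to the level set by 1 uM CP55940, fitted by four-parameter logistic.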

T1 sequence (P34972 whole entry): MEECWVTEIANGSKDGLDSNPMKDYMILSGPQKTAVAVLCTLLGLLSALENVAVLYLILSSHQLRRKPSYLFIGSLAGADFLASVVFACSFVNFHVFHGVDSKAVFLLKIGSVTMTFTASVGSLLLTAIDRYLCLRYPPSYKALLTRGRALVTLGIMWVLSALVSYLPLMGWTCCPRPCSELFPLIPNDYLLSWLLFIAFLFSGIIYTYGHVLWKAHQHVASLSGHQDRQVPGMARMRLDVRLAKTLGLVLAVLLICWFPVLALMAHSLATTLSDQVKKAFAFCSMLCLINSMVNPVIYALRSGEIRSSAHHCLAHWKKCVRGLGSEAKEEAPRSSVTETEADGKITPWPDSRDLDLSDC

| Structure (SMILES) | agonistic activity |
| --- | --- |
| CC(C)(C)c1csc(NC(=O)C(C)(C)S(=O)(=O)c2cccnc2)n1 [N-(4-tert-Butyl-thiazol-2-yl)-2-methyl-2-(pyridine-3-sulfonyl)-propionamide] | agonistic activity |
| Cc1ccccc1S(=O)(=O)C(C)(C)C(=O)Nc1nc(C(C)(C)C)cs1 [N-(4-tert-Butyl-thiazol-2-yl)-2-methyl-2-(toluene-2-sulfonyl)-propionamide] | agonistic activity |
| COc1ccc(S(=O)(=O)C(C)(C)C(=O)Nc2nc(C(C)(C)C)cs2)cc1 [N-(4-tert-butyl-1,3-thiazol-2-yl)-2-[(4-methoxyphenyl)sulfonyl]-2-methylpropanamide] | agonistic activity |
| CC(C)(C)c1nc(NC(=O)C(C)(C)S(=O)(=O)c2ccc(Cl)cc2)sc1C#N [N-(4-tert-butyl-5-cyano-1,3-thiazol-2-yl)-2-[(4-chlorophenyl)sulfonyl]-2-methylpropanamide] | agonistic activity |
| CC(C)(C)c1ccc(NC(=O)C(C)(C)S(=O)(=O)c2ccc(Cl)cc2F)cc1 [N-(4-tert-butylphenyl)-2-[(4-chloro-2-fluorophenyl)sulfonyl]-2-methylpropanamide] | agonistic activity |
| CCc1sc(NC(=O)C(C)(C)S(=O)(=O)c2ccc(OC)cc2)nc1-c1ccccc1 [N-(5-ethyl-4-phenyl-1,3-thiazol-2-yl)-2-[(4-methoxyphenyl)sulfonyl]-2-methylpropanamide] | agonistic activity |
| CCc1sc(NC(=O)C(C)(C)S(=O)(=O)c2ccc(S(C)(=O)=O)cc2)nc1-c1ccccc1 [N-(5-ethyl-4-phenyl-1,3-thiazol-2-yl)-2-methyl-2-{[4-(methylsulfonyl)phenyl]sulfonyl}propanamide] | agonistic activity |
| CCC(C)c1ccc(NC(=O)C(C)(C)S(=O)(=O)c2ccc(Cl)cc2)nc1 (stereo not shown) [N-(5-sec-Butyl-pyridin-2-yl)-2-(4-chloro-benzenesulfonyl)-2-methyl-propionamide] | agonistic activity |
| Cn1nc(C(C)(C)C)cc1NC(=O)C(C)(C)S(=O)(=O)c1ccccc1F [N-(5-tert-Butyl-2-methyl-2H-pyrazol-3-yl)-2-(2-fluoro-benzenesulfonyl)-2-methyl-propionamide] | agonistic activity |
| Cc1ccc(S(=O)(=O)C(C)(C)C(=O)Nc2cc(C(C)(C)C)nn2C)cc1F [N-(5-tert-Butyl-2-methyl-2H-pyrazol-3-yl)-2-(3-fluoro-4-methyl-benzenesulfonyl)-2-methyl-propionamide] | agonistic activity |
| Cn1nc(C(C)(C)C)cc1NC(=O)C(C)(C)S(=O)(=O)c1cccc(F)c1 [N-(5-tert-Butyl-2-methyl-2H-pyrazol-3-yl)-2-(3-fluoro-benzenesulfonyl)-2-methyl-propionamide] | agonistic activity |
| Cn1nc(C(C)(C)C)cc1NC(=O)C(C)(C)S(=O)(=O)c1ccc(Cl)cc1 [N-(5-tert-Butyl-2-methyl-2H-pyrazol-3-yl)-2-(4-chloro-benzenesulfonyl)-2-methyl-propionamide] | agonistic activity |
| Cn1nc(C(C)(C)C)cc1NC(=O)C(C)(C)S(=O)(=O)c1ccc(F)cc1 [N-(5-tert-Butyl-2-methyl-2H-pyrazol-3-yl)-2-(4-fluoro-benzenesulfonyl)-2-methyl-propionamide] | agonistic activity |
| COc1ccc(S(=O)(=O)C(C)(C)C(=O)Nc2cc(C(C)(C)C)nn2C)cc1 [N-(5-tert-Butyl-2-methyl-2H-pyrazol-3-yl)-2-(4-methoxy-benzenesulfonyl)-2-methyl-propionamide] | agonistic activity |
| Cn1nc(C(C)(C)C)cc1NC(=O)C(C)(C)S(=O)(=O)c1ccc(C(F)(F)F)nc1 [N-(5-tert-Butyl-2-methyl-2H-pyrazol-3-yl)-2-methyl-2-(6-trifluoromethyl-pyridine-3-sulfonyl)-propionamide] | agonistic activity |
| Cc1ccc(S(=O)(=O)C(C)(C)C(=O)Nc2cc(C(C)(C)C)nn2C)cc1 [N-(5-tert-Butyl-2-methyl-2H-pyrazol-3-yl)-2-methyl-2-(toluene-4-sulfonyl)-propionamide] | agonistic activity |
| Cc1nc(NC(=O)C(C)(C)S(=O)(=O)c2ccccc2F)sc1C(C)(C)C [N-(5-tert-Butyl-4-methyl-thiazol-2-yl)-2-(2-fluoro-benzenesulfonyl)-2-methyl-propionamide] | agonistic activity |
| Cc1nc(NC(=O)C(C)(C)S(=O)(=O)c2ccc(Cl)c(Cl)c2)sc1C(C)(C)C [N-(5-tert-Butyl-4-methyl-thiazol-2-yl)-2-(3,4-dichloro-benzenesulfonyl)-2-methyl-propionamide] | agonistic activity |

Other lines, results leading:

| agonistic activity | Structure (SMILES) |
| --- | --- |
| agonistic activity | Cc1ccc(S(=O)(=O)C(C)(C)C(=O)Nc2nc(C(C)(C)C)cs2)cc1 [N-(4-tert-Butyl-thiazol-2-yl)-2-methyl-2-(toluene-4-sulfonyl)-propionamide] |
| agonistic activity | CC(C)C(C(=O)Nc1nc(C(C)(C)C)cs1)S(=O)(=O)c1ccc(C(F)(F)F)cc1 (stereo not shown) [N-(4-tert-Butyl-thiazol-2-yl)-3-methyl-2-(4-trifluoromethyl-benzenesulfonyl)-butyramide] |
| agonistic activity | CC(C)(C)c1ccc(NC(=O)C(C)(C)S(=O)(=O)c2ccc(C(F)(F)F)nc2)cc1 [N-(4-tert-butylphenyl)-2-methyl-2-{[6-(trifluoromethyl)pyridin-3-yl]sulfonyl}propanamide] |
| agonistic activity | Cn1nc(C2CC2)cc1NC(=O)C(C)(C)S(=O)(=O)c1ccc(F)cc1F [N-(5-Cyclopropyl-2-methyl-2H-pyrazol-3-yl)-2-(2,4-difluoro-benzenesulfonyl)-2-methyl-propionamide] |
| agonistic activity | CCc1sc(NC(=O)C(C)(C)S(=O)(=O)c2ccc(C(F)(F)F)nc2)nc1-c1ccccc1 [N-(5-ethyl-4-phenyl-1,3-thiazol-2-yl)-2-methyl-2-{[6-(trifluoromethyl)pyridin-3-yl]sulfonyl}propanamide] |
| agonistic activity | CCC(C)c1cc(NC(=O)C(C)(C)S(=O)(=O)c2ccc(Cl)cc2)n(C)n1 (stereo not shown) [N-(5-sec-Butyl-2-methyl-2H-pyrazol-3-yl)-2-(4-chloro-benzenesulfonyl)-2-methyl-propionamide] |
| agonistic activity | Cn1nc(C(C)(C)C)cc1NC(=O)C(C)(C)S(=O)(=O)c1ccc(F)cc1F [N-(5-tert-Butyl-2-methyl-2H-pyrazol-3-yl)-2-(2,4-difluoro-benzenesulfonyl)-2-methyl-propionamide] |
| agonistic activity | Cn1nc(C(C)(C)C)cc1NC(=O)C(C)(C)S(=O)(=O)c1cc(F)ccc1F [N-(5-tert-Butyl-2-methyl-2H-pyrazol-3-yl)-2-(2,5-difluoro-benzenesulfonyl)-2-methyl-propionamide] |
| agonistic activity | Cc1ccc(S(=O)(=O)C(C)(C)C(=O)Nc2cc(C(C)(C)C)nn2C)c(F)c1 [N-(5-tert-Butyl-2-methyl-2H-pyrazol-3-yl)-2-(2-fluoro-4-methyl-benzenesulfonyl)-2-methyl-propionamide] |
| agonistic activity | COc1ccc(S(=O)(=O)C(C)(C)C(=O)Nc2cc(C(C)(C)C)nn2C)cc1F [N-(5-tert-Butyl-2-methyl-2H-pyrazol-3-yl)-2-(3-fluoro-4-methoxy-benzenesulfonyl)-2-methyl-propionamide] |
| agonistic activity | Cn1nc(C(C)(C)C)cc1NC(=O)C(C)(C)S(=O)(=O)c1ccc(Cl)cc1F [N-(5-tert-Butyl-2-methyl-2H-pyrazol-3-yl)-2-(4-chloro-2-fluoro-benzenesulfonyl)-2-methyl-propionamide] |
| agonistic activity | Cn1nc(C(C)(C)C)cc1NC(=O)C(C)(C)S(=O)(=O)c1ccc(C#N)cc1F [N-(5-tert-Butyl-2-methyl-2H-pyrazol-3-yl)-2-(4-cyano-2-fluoro-benzenesulfonyl)-2-methyl-propionamide] |
| agonistic activity | Cn1nc(C(C)(C)C)cc1NC(=O)C(C)(C)S(=O)(=O)c1ccc(C#N)cc1 [N-(5-tert-Butyl-2-methyl-2H-pyrazol-3-yl)-2-(4-cyano-benzenesulfonyl)-2-methyl-propionamide] |
| agonistic activity | Cn1nc(C(C)(C)C)cc1NC(=O)C(C)(C)S(=O)(=O)c1ccc(Cl)nc1 [N-(5-tert-Butyl-2-methyl-2H-pyrazol-3-yl)-2-(6-chloro-pyridine-3-sulfonyl)-2-methyl-propionamide] |
| agonistic activity | COc1ccc(S(=O)(=O)C(C)(C)C(=O)Nc2cc(C(C)(C)C)nn2C)cn1 [N-(5-tert-Butyl-2-methyl-2H-pyrazol-3-yl)-2-(6-methoxy-pyridine-3-sulfonyl)-2-methyl-propionamide] |
| agonistic activity | CC(C)C(C(=O)Nc1cc(C(C)(C)C)nn1C)S(=O)(=O)c1ccc(C(F)(F)F)cc1 (stereo not shown) [N-(5-tert-Butyl-2-methyl-2H-pyrazol-3-yl)-3-methyl-2-(4-trifluoromethyl-benzenesulfonyl)-butyramide] |
| agonistic activity | CC(C)(C)c1cc(NC(=O)C(C)(C)S(=O)(=O)c2ccccc2F)[nH]n1 [N-(5-tert-Butyl-2H-pyrazol-3-yl)-2-(2-fluoro-benzenesulfonyl)-2-methyl-propionamide] |
| agonistic activity | CC(C)(C)c1cc(NC(=O)C(C)(C)S(=O)(=O)c2ccc(Cl)cc2)[nH]n1 [N-(5-tert-Butyl-2H-pyrazol-3-yl)-2-(4-chloro-benzenesulfonyl)-2-methyl-propionamide] |
| agonistic activity | CC(C)(C)c1cc(NC(=O)C(C)(C)S(=O)(=O)c2ccc(C(F)(F)F)nc2)[nH]n1 [N-(5-tert-Butyl-2H-pyrazol-3-yl)-2-methyl-2-(6-trifluoromethyl-pyridine-3-sulfonyl)-propionamide] |
